According to PubChem BioAssay AID248 (DTP/NCI, 2004):
Where “and” joins values, the source holds several entries; their conditions need not be identical. Identical values can stand only once. Inconclusive results and toxic doses are left out. Rule as the data show it: active = T/C of 150% or more; inactive = T/C below 125%.

Tested on: L1210 leukemia ip in BDF1 mice, survival T/C
Assay: NCI In Vivo Anticancer Drug Screen. Data for tumor model L1210 Leukemia (intraperitoneal) in B6D2F1 (BDF1) mice
Conditions: endpoint: mean survival time, higher = longer survival
In short: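 Survival endpoint. Drug-treated group vs vehicle group, expressed as T divided by C. Tumor passaged by transplantation.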

[1] = dose: 100.0 mg/kg/injection, schedule: Q04DX003 (ip), vehicle: saline
[2] = dose: 200.0 mg/kg/injection, schedule: Q04DX003 (ip), vehicle: saline
[3] = dose: 25.0 mg/kg/injection, schedule: Q01DX009 (ip), vehicle: Klucel (hydroxypropylcellulose) (HPC)
[4] = dose: 50.0 mg/kg/injection, schedule: Q01DX009 (ip), vehicle: Klucel (hydroxypropylcellulose) (HPC)
[5] = dose: 100.0 mg/kg/injection, schedule: Q01DX009 (ip), vehicle: Klucel (hydroxypropylcellulose) (HPC)
[6] = dose: 200.0 mg/kg/injection, schedule: Q01DX009 (ip), vehicle: Klucel (hydroxypropylcellulose) (HPC)
[7] = dose: 100.0 mg/kg/injection, schedule: Q04DX003 (ip), vehicle: Klucel (hydroxypropylcellulose) (HPC)
[8] = dose: 200.0 mg/kg/injection, schedule: Q04DX003 (ip), vehicle: Klucel (hydroxypropylcellulose) (HPC)
[9] = dose: 400.0 mg/kg/injection, schedule: Q04DX003 (ip), vehicle: Klucel (hydroxypropylcellulose) (HPC)
[10] = dose: 100.0 mg/kg/injection, schedule: Q01DX001 (ip), vehicle: Klucel (hydroxypropylcellulose) (HPC)
[11] = dose: 75.0 mg/kg/injection, schedule: Q01DX001 (ip), vehicle: saline
[12] = dose: 100.0 mg/kg/injection, schedule: Q01DX001 (ip), vehicle: saline
[13] = dose: 200.0 mg/kg/injection, schedule: Q01DX001 (ip), vehicle: saline
[14] = dose: 400.0 mg/kg/injection, schedule: Q01DX001 (ip), vehicle: saline
[15] = dose: 100.0 mg/kg/injection, schedule: Q04DX003 (ip), vehicle: saline with Tween-80
[16] = dose: 200.0 mg/kg/injection, schedule: Q04DX003 (ip), vehicle: saline with Tween-80
[17] = dose: 400.0 mg/kg/injection, schedule: Q04DX003 (ip), vehicle: saline with Tween-80
[18] = dose: 50.0 mg/kg/injection, schedule: Q01DX001 (ip), vehicle: saline
[19] = dose: 100.0 mg/kg/injection, schedule: Q01DX009 (ip), vehicle: saline with Tween-80
[20] = dose: 200.0 mg/kg/injection, schedule: Q01DX009 (ip), vehicle: saline with Tween-80
[21] = dose: 400.0 mg/kg/injection, schedule: Q01DX009 (ip), vehicle: saline with Tween-80
[22] = dose: 100.0 mg/kg/injection, schedule: Q01DX001 (ip), vehicle: carboxymethylcellulose (CMC)
[23] = dose: 200.0 mg/kg/injection, schedule: Q01DX001 (ip), vehicle: carboxymethylcellulose (CMC)
[24] = dose: 400.0 mg/kg/injection, schedule: Q01DX001 (ip), vehicle: carboxymethylcellulose (CMC)

Measured: T/C

CN(C)c1ccc(N=NC#N)cc1
inactive: dose: 1.56 mg/kg/injection, schedule: Q01DX009 (ip), vehicle: saline 108 % of control | dose: 3.12 mg/kg/injection, schedule: Q01DX009 (ip), vehicle: saline 105 % of control | dose: 6.25 mg/kg/injection, schedule: Q01DX009 (ip), vehicle: saline with Tween-80 104 % of control | dose: 6.25 mg/kg/injection, schedule: Q01DX009 (ip), vehicle: saline 105 % of control

COc1ccc(C(O)CN)cc1 (centres undefined)
inactive: dose: 50.0 mg/kg/injection, schedule: Q01DX009 (ip), vehicle: saline 93 % of control | dose: 100.0 mg/kg/injection, schedule: Q01DX009 (ip), vehicle: saline 102 % of control | [1] 105 % of control | dose: 200.0 mg/kg/injection, schedule: Q01DX009 (ip), vehicle: saline 95 % of control and 102 % of control | [2] 103 % of control

CSC(=NC1CCCCC1)Nc1ccccc1
inactive: dose: 100.0 mg/kg/injection, schedule: Q01DX001 (ip), vehicle: other 98 % of control | dose: 200.0 mg/kg/injection, schedule: Q01DX001 (ip), vehicle: other 98 % of control | dose: 400.0 mg/kg/injection, schedule: Q01DX001 (ip), vehicle: other 88 % of control

COc1ccc(C(=O)OCCN(CCN(CCOC(=O)c2ccc(OC)cc2)C(=O)c2ccc(OC)cc2)C(=O)c2ccc(OC)cc2)cc1
inactive: [3] 88 % of control | [4] 96 % of control | [5] 89 % of control | [6] 94 % of control | dose: 400.0 mg/kg/injection, schedule: Q01DX009 (ip), vehicle: Klucel (hydroxypropylcellulose) (HPC) 105 % of control

O=C(NCCCl)Nc1ccccc1-c1ccccc1
inactive: [7] 101 % of control | [8] 95 % of control | [9] 115 % of control

S=C(S)Nc1ccccc1
inactive: dose: 25.0 mg/kg/injection, schedule: Q01DX001 (ip), vehicle: Klucel (hydroxypropylcellulose) (HPC) 95 % of control | dose: 50.0 mg/kg/injection, schedule: Q01DX001 (ip), vehicle: Klucel (hydroxypropylcellulose) (HPC) 92 % of control | [10] 94 % of control and 95 % of control

NCC1OC(OC2C(N)CC(N)C(O)C2OC2OC(CO)C(O)C2O)C(N)C(O)C1O (centres undefined)
inactive: [11] 92 % of control | dose: 75.0 mg/kg/injection, schedule: Q01DX009 (ip), vehicle: saline 98 % of control | [12] 100 % of control | [1] 100 % of control | dose: 150.0 mg/kg/injection, schedule: Q01DX001 (ip), vehicle: saline 97 % of control | dose: 150.0 mg/kg/injection, schedule: Q01DX009 (ip), vehicle: saline 96 % of control | [13] 100 % of control | [2] 95 % of control | dose: 300.0 mg/kg/injection, schedule: Q01DX001 (ip), vehicle: saline 93 % of control | dose: 300.0 mg/kg/injection, schedule: Q01DX009 (ip), vehicle: saline 98 % of control | [14] 100 % of control | dose: 400.0 mg/kg/injection, schedule: Q04DX003 (ip), vehicle: saline 95 % of control

CC(N)C(O)C(Cl)(Cl)Cl (centres undefined)
inactive: [15] 92 % of control | [16] 92 % of control | [17] 90 % of control

c1ccc(-c2cc(-c3ccccc3)c(-c3ccccc3)c(-c3ccccc3)c2)cc1
inactive: [18] 100 % of control | [12] 100 % of control | [13] 100 % of control | [14] 100 % of control

CNc1nnnn1-c1ccccc1
inactive: dose: 100.0 mg/kg/injection, schedule: Q01DX001 (ip), vehicle: acetone 95 % of control | dose: 200.0 mg/kg/injection, schedule: Q01DX001 (ip), vehicle: acetone 100 % of control | dose: 400.0 mg/kg/injection, schedule: Q01DX001 (ip), vehicle: acetone 95 % of control

CC(C)(C)NC(=O)NCc1cccnc1
inactive: dose: 100.0 mg/kg/injection, schedule: Q01DX009 (ip), vehicle: saline sonified 97 % of control | dose: 100.0 mg/kg/injection, schedule: Q04DX003 (ip), vehicle: saline sonified 100 % of control | dose: 200.0 mg/kg/injection, schedule: Q01DX009 (ip), vehicle: saline sonified 100 % of control | dose: 200.0 mg/kg/injection, schedule: Q04DX003 (ip), vehicle: saline sonified 87 % of control | dose: 400.0 mg/kg/injection, schedule: Q01DX009 (ip), vehicle: saline sonified 105 % of control | dose: 400.0 mg/kg/injection, schedule: Q04DX003 (ip), vehicle: saline sonified 94 % of control

CCCCCCC(CC)NCCO (centres undefined)
inactive: [11] 96 % of control

Clc1ccc(N=Cc2ccccc2Cl)cc1
inactive: [19] 94 % of control | [20] 92 % of control | [21] 89 % of control

CC1(C)C2CCC(=O)C1C2 (centres undefined)
inactive: [15] 101 % of control | [16] 96 % of control | [17] 96 % of control

Nc1nc(-c2ccccc2)c(CCCO)c(=O)[nH]1
inactive: [10] 102 % of control | dose: 200.0 mg/kg/injection, schedule: Q01DX001 (ip), vehicle: Klucel (hydroxypropylcellulose) (HPC) 102 % of control | dose: 400.0 mg/kg/injection, schedule: Q01DX001 (ip), vehicle: Klucel (hydroxypropylcellulose) (HPC) 98 % of control

COc1cc(/C=C2\C(=O)C=C(C)CC2(C)C)ccc1O
inactive: dose: 25.0 mg/kg/injection, schedule: Q04DX003 (ip), vehicle: saline with Tween-80 92 % of control | dose: 50.0 mg/kg/injection, schedule: Q04DX003 (ip), vehicle: saline with Tween-80 89 % of control | [15] 89 % of control | [16] 90 % of control

O=c1oc(-c2ccc3c(c2)OCO3)nc2ccccc12
inactive: dose: 50.0 mg/kg/injection, schedule: Q01DX009 (ip), vehicle: saline with Tween-80 94 % of control | [19] 94 % of control | [20] 94 % of control

Cc1ccc(S(=O)(=O)OC2CCCC3CC(=O)CCC32C)cc1 (centres undefined)
inactive: [18] 101 % of control | [22] 103 % of control | [12] 101 % of control | [23] 105 % of control | [13] 95 % of control | [24] 103 % of control | [14] 98 % of control

CCOc1c(/C=N/NC(=O)c2ccccc2OC)cccc1OC
inactive: [5] 116 % of control | [7] 102 % of control | [6] 95 % of control | [8] 105 % of control | [9] 107 % of control

CCCC(CCC)NCCOC(=O)c1ccc(N)cc1
inactive: dose: 75.0 mg/kg/injection, schedule: Q01DX001 (ip), vehicle: other 101 % of control

NC(Cc1cccs1)C(=O)O (centres undefined)
inactive: [22] 96 % of control | [19] 101 % of control | [15] 99 % of control | [23] 101 % of control | [20] 104 % of control | [16] 99 % of control | dose: 250.0 mg/kg/injection, schedule: Q01DX Z (ip), vehicle: carboxymethylcellulose (CMC) 89 % of control | [24] 101 % of control | [21] 97 % of control | [17] 96 % of control | dose: 1000.0 mg/kg/injection, schedule: Q01DX Z (ip), vehicle: carboxymethylcellulose (CMC) 92 % of control

CCCOC(C)(C)CCC/C(C)=C/COc1ccc(CC)cc1
inactive: dose: 100.0 mg/kg/injection, schedule: Q04DX002 (ip), vehicle: saline with Tween-80 96 % of control | dose: 200.0 mg/kg/injection, schedule: Q04DX002 (ip), vehicle: saline with Tween-80 92 % of control | dose: 400.0 mg/kg/injection, schedule: Q04DX002 (ip), vehicle: saline with Tween-80 105 % of control

COc1ccc(NC(=O)/C=N/O)c(Cl)c1
inactive: [23] 94 % of control | [24] 90 % of control

CCOc1cccnc1/C=N/NC(N)=S
inactive: [18] 106 % of control | [12] 102 % of control | [13] 100 % of control | [14] 108 % of control

CCCCNC(C)(C)C(SSSC(c1ccc(Cl)cc1)C(C)(C)NCCCC)c1ccc(Cl)cc1 (centres undefined)
inactive: dose: 12.0 mg/kg/injection, schedule: Q01DX009 (ip), vehicle: Klucel (hydroxypropylcellulose) (HPC) 104 % of control | [3] 100 % of control | [4] 100 % of control
